Results taken from US9738614B2, “Malignant and non-malignant disease treatment with Ras antagonists” (PISCES THERAPEUTICS, LLC, priority 2011, dated 2017).
Like-named read-outs stand apart in the source and are kept apart here.

How the values were obtained:
ST88-14 cells [1] = experiment: ST88-14 MPNST flank tumors in nude mice; format: in vivo, mouse; conditions: 5 mg/kg or 10 mg/kg intraperitoneally once a day
Protocol: ST88-14 cells were injected into the flanks of nude mice and tumors were allowed to grow. When their lengths and widths could readily be determined by palpation, the animals were treated with compound (5) at doses of 5 mg/kg or 10 mg/kg intraperitoneally once a day or vehicle. Tumor dimensions were determined over the course of a 35 day treatment period at the end of which the animals were killed. At this point the tumors were removed and weighed.

ST88-14 cells [2] = experiment: IC50 assay with ST88-14 MPNST cells; format: cell-based, human; conditions: 0.1 to 50 μM, two separate experiments, read-out: half-maximal effects on cell viability
Protocol: (§1) U87MG cells were seeded in a 24-well plate, 5000 cells per well, and incubated overnight at 37° C. in serum-free media. The next day they were treated in triplicate with 50 and 100 μM of each test compound (1), (2), (3), (4), and (5) and the reference compound FTS. After five days, the cells were trypsinized (0.5%), stained with trypan blue, and counted to determine the cell number per well. The half-maximal inhibitory concentration (IC50) values were calculated using Multiplex Reader-Fit software made by MiraiBio Group, Hitachi Solutions America, Ltd. In a typical experiment, the control wells averaged 138,000 cells. The results are presented graphically in FIG. 1. The test compounds at 50 μM allowed the following U87MG cell proliferation compared to control: compound (1)—37%, compound (2)—18%, compound (3)—10%, compound (4)—40%, and compound (5)—0%. The reference compound FTS at 50 μM allowed 7% cell proliferation compared to control.
IC50 assays similar to Example 6 above were performed with ST88-14 cells derived from a MPNST removed from a patient who had NF-1. The cells have loss-of-function mutations in both copies of the NF-1 gene, neurofibromin, which is discussed further above. ST88-14 cells were grown in concentrations of compound (5) ranging from 0.1 to 50 μM in two separate experiments. […]

PANC-1 cells = experiment: Cell proliferation assay for PANC-1 cells; format: cell-based; conditions: 1.25 μM, media with 5% serum, five days (FIG. 3)
Protocol: The adult glioblastoma cell line U87MG was obtained from a commercial source (ATCC). The pancreatic cancer cell line PANC-1 was obtained from a local laboratory (Indiana University). Both lines were grown in Iscove's Modified Dulbecco's Medium with 10% fetal bovine serum (FBS) at 37° C. and 5% CO2.
Compounds (1), (2), (3), (4), and (5), which are shown and described above, were each dissolved in ethanol at 10 mg/mL. A measured portion of the solution was pipetted into a microcentrifuge tube. Then, the ethanol was evaporated from each tube using a SpeedVac®, leaving just the compound in the tube. The appropriate amount of chloroform was added to the tube to produce a 0.1 M concentration. The solutions were placed on ice and in the dark so they could be pipetted into 10- and 20-μL aliquots in 1.5 mL microcentrifuge tubes. The solutions were frozen at […] with lids closed tightly and the tubes covered with foil.
Prior to treating the cells, a tube of the test compound was removed from the freezer and placed under a biosafety hood to evaporate the chloroform in the tubes. Then, dimethyl sulfoxide (DMSO) was added to the tubes to make the correct concentration to use in the experiment (0.1 M stock). The tubes were vortexed, and warm media with 10% FBS was slowly added to make the correct working concentrations to be used in the experiment. The compounds were directly added to each well for treatment.
The cells were treated in triplicate with standard concentrations of 6.25, 12.5, 25, 50, and 100 μM of each test compound (3) and (5) and the reference compound FTS and, when needed, concentrations of 0.625, 1.25, 2.5 and 5.0 μM in media with 5% serum for five days. Then, the cells were stained with trypan blue, and the cell number per each well was determined. Again, the IC50 values were calculated using Multiplex Reader-Fit software made by MiraiBio Group, Hitachi Solutions America, Ltd. In a typical experiment, the control wells averaged 32,500 cells. The results are presented graphically in FIG. 3. […]

[3] = system: hematopoietic progenitor cells (cord blood low density cells); experiment: Human hematopoietic progenitor cell toxicity (colony assay); format: cell-based; conditions: 12 days; 25 and 2.5 μM for compound (3), 2.5 and 0.25 μM for compound (5)
Protocol: Cord blood low density cells were plated at 1×10^5 cells per plate in 1 mL complete methylcellulose in the presence of each test compound (3) and (5) and incubated for 12 days in a CO2 incubator. Colony-forming unit-granulocyte (CFU-GM), burst-forming unit-erythroid (BFU-E), and mixed colonies were counted under an inverted microscope. […] The test compounds were not toxic to the hematopoietic progenitor cells.

JW16 cells = experiment: IC50 assay with JW16 mouse MPNST cells; format: cell-based; conditions: 0.5 to 20 μM, read-out: half-maximal effect on viability
Protocol: as §1
Mouse models of NF-1 related MPNST have been made. Cells from two such mice, JW16 and JW19, have been isolated and propagated. The JW16 and JW19 cells were subjected to IC50 assays similar to Example 6 above.

CC(C)=CCC/C(C)=C/CC/C(C)=C/CSc1ccccc1C1=NCCN1 [compound (5), 2-(2-{[(2E,6E)-3,7,11-trimethyldodeca-2,6,10-trien-1-yl]sulfanyl}phenyl)-4,5-dihydro-1H-imidazole]
tumor size (ST88-14 cells [1]; 35 day treatment): dose dependent decrease | tumor weight (ST88-14 cells [1]; end of 35 day treatment): dose dependent decrease | IC50 (ST88-14 cells [2]; Homo sapiens, ST88-14, ST88-14 cells): 5.5 µM | IC50 (ST88-14 cells [2]; ST88-14 cells): 6.6 µM | PANC-1 cell proliferation compared to control (PANC-1 cells): 56% | toxicity to hematopoietic progenitor cells (CFU-GM, BFU-E, mixed colonies) [3]: not toxic | IC50 (JW16 cells): 2.2 µM
